Assay results as given in ChEMBL document CHEMBL1201862, “PubChem BioAssay data set” (2004).
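In this assay, cells in 96-well plates receive the compound at five concentrations for 48 hours. Endpoints are linearly interpolated between the surrounding concentrations. GI50 = concentration required for 50% inhibition of growth.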 The source made the active and inactive calls. Rule as the data show it: active = GI50 up to about 1.1 µM and inactive = higher.

Legend:
Assay in all cases: DTP human tumour cell line panel, 48 h
CAKI-1 = system: CAKI-1
COLO 205 = system: COLO 205
HOP-92 = system: HOP-92
IGROV-1 = system: IGROV-1
M14 = system: M14
Malme-3M = system: Malme-3M
NCI-H23 = system: NCI-H23
RXF 393 = system: RXF 393
SNB-78 = system: SNB-78
UACC-62 = system: UACC-62
CCRF-CEM = system: CCRF-CEM
MOLT-4 = system: MOLT-4
RPMI-8226 = system: RPMI-8226
SK-MEL-5 = system: SK-MEL-5
SK-MEL-2 = system: SK-MEL-2
BT-549 = system: BT-549
DU-145 = system: DU-145
Hs-578T = system: Hs-578T
MCF7 = system: MCF7
MDA-N = system: MDA-N

SMILES | GI50 (CAKI-1) | GI50 (COLO 205) | GI50 (HOP-92) | GI50 (IGROV-1) | GI50 (M14) | GI50 (Malme-3M) | GI50 (NCI-H23) | GI50 (RXF 393) | GI50 (SNB-78) | GI50 (UACC-62) | GI50 (CCRF-CEM) | GI50 (MOLT-4) | GI50 (RPMI-8226) | GI50 (SK-MEL-5) | GI50 (SK-MEL-2) | GI50 (BT-549) | GI50 (DU-145) | GI50 (Hs-578T) | GI50 (MCF7) | GI50 (MDA-N)
CCOC(=O)C1(C)CCCCC(=O)N1 (configuration not stated) | > 100 µM (inactive) | > 100 µM (inactive) | > 100 µM (inactive) | > 100 µM (inactive) | > 100 µM (inactive) | > 100 µM (inactive) | > 100 µM (inactive) | > 100 µM (inactive) | > 100 µM (inactive) | > 100 µM (inactive) | – | – | – | – | – | – | – | – | – | –
CC1=C(C)C(=O)c2c(cc3ccccn23)C1=O | – | 20.3 µM (inactive) | – | 24.5 µM (inactive) | 14.2 µM (inactive) | 4.9 µM (inactive) | 10.2 µM (inactive) | 14.7 µM (inactive) | 23.1 µM (inactive) | 15.6 µM (inactive) | 27 µM (inactive) | 24.2 µM (inactive) | 15.8 µM (inactive) | 10.4 µM (inactive) | – | – | – | – | – | –
c1ccc([P+](c2ccccc2)(c2ccccc2)C2Sc3ccccc3S2)cc1 | 14.6 µM (inactive) | 16.7 µM (inactive) | > 100 µM (inactive) | > 100 µM (inactive) | 15.3 µM (inactive) | 13.9 µM (inactive) | 10.5 µM (inactive) | 14.9 µM (inactive) | 18.7 µM (inactive) | 13.8 µM (inactive) | 13.8 µM (inactive) | – | 16.7 µM (inactive) | 17.7 µM (inactive) | – | – | – | – | – | –
CC1CN1c1c(C(=O)/C=C/c2ccc(Cl)cc2)c(-c2ccccc2)nn(C)c1=O (configuration not stated) | 4.74 µM (inactive) | 1.96 µM (inactive) | > 10 µM (inactive) | 3.05 µM (inactive) | 1.95 µM (inactive) | 8.97 µM (inactive) | 2.77 µM (inactive) | 3.01 µM (inactive) | 2.21 µM (inactive) | 2.32 µM (inactive) | 2.24 µM (inactive) | 2.24 µM (inactive) | – | – | 2.4 µM (inactive) | – | – | – | – | –
C[C@]12CC(c3ccccc3O1)C(C(N)=O)C(=O)N2 (some centres not stated) | > 100 µM (inactive) | > 100 µM (inactive) | > 100 µM (inactive) | > 100 µM (inactive) | > 100 µM (inactive) | > 100 µM (inactive) | > 100 µM (inactive) | > 100 µM (inactive) | – | > 100 µM (inactive) | > 100 µM (inactive) | > 100 µM (inactive) | > 100 µM (inactive) | > 100 µM (inactive) | > 100 µM (inactive) | > 100 µM (inactive) | > 100 µM (inactive) | > 100 µM (inactive) | > 100 µM (inactive) | > 100 µM (inactive)
COc1cc([C@@H]2c3cc4c(cc3[C@@H](OC(=O)c3cccc(N)c3)C3COC(=O)[C@@H]32)OCO4)cc(OC)c1O (some centres not stated) | 1.84 µM (inactive) | 11.3 µM (inactive) | – | 13.8 µM (inactive) | 0.933 µM (active) | 2.37 µM (inactive) | 1.19 µM (inactive) | 0.632 µM (active) | 64.4 µM (inactive) | 0.667 µM (active) | 2.18 µM (inactive) | 1.91 µM (inactive) | 3.86 µM (inactive) | 0.536 µM (active) | 14.9 µM (inactive) | – | – | – | – | –
Oc1cc(O)c2c(-c3c(O)c(-c4ccc(O)c(O)c4)[o+]c4cc(O)cc(O)c34)c(O)c(-c3ccc(O)c(O)c3)[o+]c2c1 | 36.9 µM (inactive) | 42.5 µM (inactive) | 36.7 µM (inactive) | 48 µM (inactive) | 55.5 µM (inactive) | 46 µM (inactive) | 40.3 µM (inactive) | 35.9 µM (inactive) | 51.5 µM (inactive) | 22.6 µM (inactive) | > 10 µM (inactive) | 30.5 µM (inactive) | 63 µM (inactive) | > 100 µM (inactive) | – | – | – | – | – | –
CCCCON1C[C@@H](O)C(O)[C@@H](O)C1 (some centres not stated) | > 100 µM (inactive) | > 100 µM (inactive) | > 100 µM (inactive) | > 100 µM (inactive) | > 100 µM (inactive) | > 100 µM (inactive) | > 100 µM (inactive) | > 100 µM (inactive) | – | > 100 µM (inactive) | > 100 µM (inactive) | > 100 µM (inactive) | > 100 µM (inactive) | > 100 µM (inactive) | > 100 µM (inactive) | > 100 µM (inactive) | > 100 µM (inactive) | > 100 µM (inactive) | > 100 µM (inactive) | > 100 µM (inactive)
C/C(=N/CC(=O)O)c1ccccc1 | > 100 µM (inactive) | > 100 µM (inactive) | > 100 µM (inactive) | > 100 µM (inactive) | > 100 µM (inactive) | > 100 µM (inactive) | 92.5 µM (inactive) | > 100 µM (inactive) | – | > 100 µM (inactive) | 27.8 µM (inactive) | 70.5 µM (inactive) | > 100 µM (inactive) | 89.5 µM (inactive) | > 100 µM (inactive) | 61 µM (inactive) | > 100 µM (inactive) | > 100 µM (inactive) | > 100 µM (inactive) | > 100 µM (inactive)
CN/N=C(/Cc1occc(=O)c1O)C(=O)Nc1ccccc1C | > 100 µM (inactive) | > 100 µM (inactive) | 20.4 µM (inactive) | > 100 µM (inactive) | > 100 µM (inactive) | > 100 µM (inactive) | > 100 µM (inactive) | – | > 100 µM (inactive) | > 100 µM (inactive) | > 100 µM (inactive) | > 100 µM (inactive) | > 100 µM (inactive) | > 100 µM (inactive) | > 100 µM (inactive) | – | – | – | – | –
O=C(COc1ccccc1Cl)N1N=C(c2ccccc2)CC1(O)c1ccccc1 (configuration not stated) | 29 µM (inactive) | 18 µM (inactive) | 22.3 µM (inactive) | 17.9 µM (inactive) | 17 µM (inactive) | 14.9 µM (inactive) | 12.1 µM (inactive) | – | 20.4 µM (inactive) | 12.8 µM (inactive) | – | 7.43 µM (inactive) | 8.17 µM (inactive) | – | 18.9 µM (inactive) | – | – | – | – | –
Cc1cc(C(O)CCCc2ccccc2)cc(C)c1O (configuration not stated) | – | 67.6 µM (inactive) | – | 83.6 µM (inactive) | 56.1 µM (inactive) | 18.9 µM (inactive) | 39.8 µM (inactive) | 12 µM (inactive) | 34.9 µM (inactive) | 35.9 µM (inactive) | 27.7 µM (inactive) | 19.4 µM (inactive) | 24.1 µM (inactive) | 22.5 µM (inactive) | 33.8 µM (inactive) | – | – | – | – | –
Cc1cn(C2CC(N)C(CN)O2)c(=O)[nH]c1=O (configuration not stated) | > 100 µM (inactive) | > 100 µM (inactive) | > 100 µM (inactive) | > 100 µM (inactive) | > 100 µM (inactive) | > 100 µM (inactive) | > 100 µM (inactive) | > 100 µM (inactive) | – | > 100 µM (inactive) | > 100 µM (inactive) | > 100 µM (inactive) | > 100 µM (inactive) | > 100 µM (inactive) | > 100 µM (inactive) | > 100 µM (inactive) | > 100 µM (inactive) | > 100 µM (inactive) | > 100 µM (inactive) | 35.6 µM (inactive)
O=[N+]([O-])/C=C/c1cn(CCCCCn2cc(/C=C/[N+](=O)[O-])c3ccccc32)c2ccccc12 | 17.7 µM (inactive) | 4.3 µM (inactive) | 19.8 µM (inactive) | 2.23 µM (inactive) | 1.44 µM (inactive) | 3.54 µM (inactive) | 4.02 µM (inactive) | 0.582 µM (active) | – | 6.95 µM (inactive) | 1.04 µM (active) | 3.05 µM (inactive) | 0.24 µM (active) | 1.75 µM (inactive) | 13.5 µM (inactive) | 1.28 µM (inactive) | 2.19 µM (inactive) | 1.87 µM (inactive) | 0.408 µM (active) | 0.322 µM (active)
Cc1cc(=O)n2nc(CN3CCCCC3)sc2n1 | > 100 µM (inactive) | > 100 µM (inactive) | > 100 µM (inactive) | > 100 µM (inactive) | > 100 µM (inactive) | > 100 µM (inactive) | > 100 µM (inactive) | > 100 µM (inactive) | – | > 100 µM (inactive) | > 100 µM (inactive) | > 100 µM (inactive) | > 100 µM (inactive) | > 100 µM (inactive) | > 100 µM (inactive) | > 100 µM (inactive) | > 100 µM (inactive) | > 100 µM (inactive) | > 100 µM (inactive) | > 100 µM (inactive)
O=C(CC(c1ccccc1)c1c(O)c2ccccc2oc1=O)c1ccccc1 (configuration not stated) | 21.2 µM (inactive) | 59.7 µM (inactive) | > 44.3 µM (inactive) | > 100 µM (inactive) | > 100 µM (inactive) | > 84.9 µM (inactive) | 53.3 µM (inactive) | > 53.1 µM (inactive) | – | 38.4 µM (inactive) | 59.7 µM (inactive) | 84.9 µM (inactive) | 56.1 µM (inactive) | > 100 µM (inactive) | > 92.3 µM (inactive) | 49.5 µM (inactive) | > 89.1 µM (inactive) | > 69.5 µM (inactive) | > 85.9 µM (inactive) | > 84.5 µM (inactive)
O=C1NC(c2ccccc2)C1N(Cc1ccccc1)Cc1ccccc1 (configuration not stated) | > 100 µM (inactive) | > 100 µM (inactive) | > 100 µM (inactive) | > 100 µM (inactive) | > 100 µM (inactive) | > 100 µM (inactive) | > 100 µM (inactive) | > 100 µM (inactive) | – | 93.1 µM (inactive) | > 100 µM (inactive) | > 100 µM (inactive) | > 100 µM (inactive) | > 100 µM (inactive) | > 100 µM (inactive) | > 100 µM (inactive) | > 100 µM (inactive) | 61.2 µM (inactive) | > 100 µM (inactive) | > 100 µM (inactive)
